According to patent US20040170622A1, “Methods and compositions for modulating XBP-1 activity” (President and Fellows of Harvard College, priority 2002, published 2004):
Where a SMILES comes first, the peptide text is derived from it. The star is where a group is joined. Cbz = O=C(OCc1ccccc1)*

Assays:
[1] = system: XBP-1u and XBP-1s proteins; test: XBP-1u and XBP-1s protein levels in J558 cells (Western blot); assay type: cell-based
Experimental: (A) BiP and CHOP induction was examined by northern blot analysis after treating NIH3T3 or J558 myeloma cells with either MG-132 (20 μM), Tm (10 μg/ml) or both. Cells were pretreated with MG-132 for 1 hr and then further treated with Tm for 4 hrs. Ethidium bromide staining of the gel is shown at the bottom. (B) Inhibition of caspase-12 processing by proteasome inhibitors. Processing of full-length caspase-12 was examined by Western blotting in J558 myeloma cells treated with thapsigargin (1 μM) or PIs (20 μM) during the indicated time periods. (C) Alteration in the ratio of XBP-1 protein species in J558 cells were treated with increasing amounts of MG-132 for 16 hrs. Cells undergoing apoptosis were counted by Annexin V staining. (D) Time course of the XBP-1s to XBP-1u shift. Cells were treated with MG-132 (1 μM) for the indicated times and XBP-1u and spliced protein levels and cell death determined. (E) Alteration in the ratio of XBP-1 species in the MM.1s human myeloma line. Cells were treated with PS-341 (8 nM) in a time course analysis and XBP-1 protein species quantified.
Cells were lysed in RIPA buffer (50 mM Tris pH 7.4, 150 mM NaCl, 1 mM EDTA, 1% Triton X-100, 1% sodium deoxycholate, 0.1% SDS) and lysates subjected to SDS-PAGE and transferred to Hybond P membrane (Amersham-Pharmacia, Piscataway, N.J.). […] HeLa cells were cotransfected with XBP-1u and His-tagged ubiquitin expression plasmids (pMT 107, D. Bohmann, EMBL, Germany) by using the Lipofectamine-2000 reagent (Invitrogen, Carlsbad, Calif.). […] Degradation rates of XBP-1u and XBP-1s proteins were determined by pulse labeling J558 cells with ^35S Met/Cys for 1 hr and chasing for the indicated times.

IL-6 = IL-6 production by retrovirally transduced wt and XBP-1-/- B cells (ELISA, Northern blot); assay type: cell-based, murine; settings: for secretion of IL-6 compared to control cells: LPS 72 h
Experimental: Assays to measure immunoglobulin or cytokine levels in culture supernatants were performed as described (e.g., Hodge et al., 1996 Immunity. 4:397-405 or Science. 1996 274:1903-5).
The XBP-1 cDNAs for the unspliced (XBP-1u/s) and the spliced (XBP-1s) forms were PCR-amplified from the total RNA of untreated and tunicamycin treated NIH3T3 cells, respectively, with a primer set (5′-[…]-3′ (SEQ ID NO: 7) and 5′-[…]-3′) (SEQ ID NO: 8). XBP-1u form was generated by a PCR-based mutagenesis from XBP-unspliced/s cDNA so that the two G residues at position 532 and 535 were changed to A without changing amino acid sequences in the XBP-1u open reading frame. Numbers are based on the sequences from gene bank database (NM_013842 [gi:13775155]). These XBP-1 cDNAs were inserted into the GFP-RV retroviral vector by using blunt end ligation (Sambrook et al., 1989). EFFECTENE transfection (Quiagen) was used to introduce the DNA into the Phoenix cell line as described by manufacturer (e.g., Reimold et al., 2001 Nature. 412:300-7 or Int Immunol. 2001 13:241-8). Viral supernatants were harvested after 48 hours and frozen at −80° C. for later use. B cells were purified from mouse spleens using CD43 depletion or positive selection with B220+ magnetic beads as described by the manufacturer (MidiMacs, Miltenyi Biotech). B cell purity was generally near 95% as confirmed by flow cytometry. The B cells (10^6 cells /ml) were then activated in culture with LPS 10 μg/ml and F (ab′)2 anti-IgM (5 μg/ml Southern Biotechnology Associates Inc.) for 24 hours. The 1 ml of activated B cells (10^6 cells/ml) were mixed with 4 μg of polybrene and 1 ml of virus-containing supernatant and spun at 1000 g for 45 minutes at 24° C. Cells were incubated for 24-36 h at 37° C. and then GFP+ cells were flow sorted and returned to culture with and without stimulation.
In human multiple myeloma cells, XBP-1 was induced by IL-6 treatment and implicated in the proliferation of malignant plasma cells (Wen et al., 1999). However, no role for IL-6 in upregulating XBP-1 transcripts or in mediating splicing of XBP-1 RNA in mature B cells has been described (FIG. 6A). The ability of XBP-1 to induce IL-6 production in wt and XBP-1^−/− primary B cells was tested. As described above, in vitro activated murine splenic B cells were transduced using retroviruses expressing bicistronic mRNA for XBP-1u/s, XBP-1s, XBP-1u and control GFP. After cell sorting, GFP^+ cells were stimulated with LPS and assayed for cytokine production after 72 h. In FIG. 6 panel (A) purified B cells from wt and XBP-1^−/− mice were activated in culture with LPS 10 μg/ml and F(ab′)2 anti-IgM (5 μg/ml ) for 24 hours. Retroviral transduction with GFP alone (GFP-Rv), XBP-1u/s (XBP-1 u/s GFP Rv), XBP-1s (XBP-1s GFP Rv) or XBP-1u (XBP-1u GFP Rv) of activated B cells was performed. Cells were incubated for 24-36 h at 37° C. and then GFP+ cells were flow sorted and then returned to culture with LPS stimulation (10 μg/ml) for 72 h. Cytokine production was analyzed by ELISA from culture supernatants of stimulated B cells. Experiments were done at least three times and standard deviation is shown. In panel (B) Total RNAs were prepared from stimulated B cells above and XBP-1 mRNA levels were determined by Northern blot analysis with γ-actin control

spliced XBP-1 = test: Inhibition of transactivation function of spliced XBP-1, luciferase in NIH 3T3 cells; assay type: cell-based; settings: NIH 3T3, 200 ng spliced XBP-1, 200 ng mutant
Experimental: Versions of XBP-1 with various deletions of the C terminal transcription activating domain (e.g., consisting of the N terminal 225, 188, or 136 amino acids of the spliced form of XBP-1) that expressed high levels of protein by western analysis were created. The proteins were tested for their ability to inhibit the transactivation function of spliced XBP-1. Both the 188 and 136 N terminal mutants were extremely potent inhibitors (effective at a 1:1 ratio) of the spliced XBP-1. NIH 3T3 cells expressing XBP-1uc constructs were transfected with 200 ng of spliced XBP-1, yielding a relative luciferase activity of 44.5. 200 ng of XBP-N188 lowered the luciferase level to 1.8 and 200 ng of XBP-N136 lowered the luciferase activity to 2.2.

Row | Molecule | XBP-1s protein level, time course ([1]; J558, MG-132 1 μM) | onset of XBP-1u increase ([1]; J558, MG-132 1 μM) | time of XBP-1u peak ([1]; J558, MG-132 1 μM) [h] | XBP-1u accumulation and XBP-1s decrease ([1]; J558 cells, 16 hrs) | secretion of IL-6 compared to control cells (IL-6; XBP-1-/- B cells) | increase in IL-6 gene expression compared to controls (Northern blot) (IL-6; XBP-1s transduced cells) [fold] | secretion of IL-6 compared to control cells (IL-6; wild type B cells) | relative luciferase activity (spliced XBP-1)
1 | CC(C)C[C@@H](C=O)NC(=O)[C@H](CC(C)C)NC(=O)[C@H](CC(C)C)NC(=O)OCc1ccccc1 [MG-132] (Cbz-Leu-Leu-Leu-aldehyde) | rapidly declined after 4 hours of treatment and was barely detectable by 16 hours | as early as one hour post treatment | 8 | striking accumulation of XBP-1 u and a concomitant decrease in XBP-1s proteins | – | – | – | –
2 | XBP-1s: vector encoding only the spliced form of murine XBP-1, a protein of 371 aa (protein) MVVVAAAPSAATAAPKVLLLSGQPASGGRALPLMVPGPRAAGSEASGTPQARKRQRLTHLSPEEKALRRKLKNRVAAQTARDRKKARMSELEQQVVDLEEENHKLQLENQLLREKTHGLVVENQELRTRLGMDTLDPDEVPEVEAKGSGVRLVAGSAESAAGAGPVVTSPEHLPMDSDTVASSDSESDILLGILDKLDPVMFFKCPSPESASLEELPEVYPEGPSSLPASLSLSVGTSSAKLEAINELIRFDHVYTKPLVLEIPSETESQTNVVVKIEEAPLSSSEEDHPEFIVSVKKEPLEDDFIPELGISNLLSSSHCLRPPSCLLDAHSDCGYEGSPSPFSDMSSPLGTDHSWEDTFANELFPQLISV | – | – | – | – | seven fold | ~5 | approximately ten-fold | 44.5
